In paper PMC7560342, “In Vitro and In Vivo Evaluation of the Toxic Effects of Dodecylguanidine Hydrochloride” (Toxics, 2020):

System: Sprague-Dawley (SD) rats
Assay: Histopathology of nasal cavity and lung after acute inhalation
Type: in vivo, rat
Conditions: High 68 mg/m^3, 4 h; for Lung: Cell infiltration, terminal bronchiole/alveolar duct, neutrophils/macrophages / Lung: Intraluminal cell debris, terminal bronchiole/alveolar duct / Lung: No specific lesion / Nasal cavity Level 1: Acute inflammation with necrosis, focal / Nasal cavity Level 1: Cell infiltration, lymphocytes, focal / Nasal cavity Level 1: No specific lesion / Nasal cavity Level 2: Acute inflammation with necrosis, focal / Nasal cavity Level 2: Cell infiltration, lymphocytes, focal / Nasal cavity Level 2: No specific lesion / Nasal cavity Level 3: Cell infiltration, lymphocytes, focal / Nasal cavity Level 3: No specific lesion / Nasal cavity Level 4: Cell infiltration, lymphocytes, focal / Nasal cavity Level 4: No specific lesion: cases (percentage) of 5 examined; for Lung: Cell infiltration, terminal bronchiole/alveolar duct, neutrophils/macrophages; Grade: minimal / Lung: Intraluminal cell debris, terminal bronchiole/alveolar duct; Grades: minimal / Nasal cavity Level 1: Acute inflammation with necrosis, focal; Grade: mild / Nasal cavity Level 1: Acute inflammation with necrosis, focal; Grade: minimal / Nasal cavity Level 1: Cell infiltration, lymphocytes, focal; Grade: minimal / Nasal cavity Level 2: Acute inflammation with necrosis, focal; Grade: mild / Nasal cavity Level 2: Acute inflammation with necrosis, focal; Grade: minimal / Nasal cavity Level 2: Cell infiltration, lymphocytes, focal; Grade: minimal / Nasal cavity Level 3: Cell infiltration, lymphocytes, focal; Grade: minimal / Nasal cavity Level 4: Cell infiltration, lymphocytes, focal; Grade: minimal: number of cases
Protocol: The inhalation aerosols of the DGH solutions were generated using an atomizer with a clean air flow of 250 L/min. For the acute inhalation exposure study, the rats were exposed to 7.8 mg/m^3, 23 mg/m^3, and 70 mg/m^3 DGH for 4 h in the low, middle, and high exposure groups, respectively, and the control rats were exposed to clean air. In the acute toxicity test, all the rats in each group were sacrificed immediately after exposure. Temperature, humidity, air flow, and air pressure were monitored during the exposure using a Model VT3-X15 environmental controller (Sibata, Saitama, Japan). The concentration of DGH was analyzed by sampling the chamber air using a SIP-32L (Sibata, Saitama, Japan) and measuring the weight of the membranes (T60A20, Φ55). The mass median aerodynamic diameter (MMAD) and geometric standard deviation (GSD) of DGH in the exposure chamber were measured using an Andersen cascade impactor (AN-200, Sibata, Saitama, Japan).
After the inhalation of DGH for 4 h, the animals were euthanized. After gross examination, the left lung and nasal cavity of the rats in the control and high-exposure groups were fixed in 10% neutral buffered formalin. The nasal cavity was decalcified with a decalcification solution and then cross-sectioned into four levels as follows: level 1 (posterior part of the upper incisors), level 2 (incisive papilla), level 3 (second palatine crest), level 4 (first upper molar teeth). Following routine tissue processing, the tissues were embedded in paraffin and sectioned into 3 μm thick sections. The tissue sections were stained with hematoxylin and eosin (H&E), and then examined under a light microscope (Olympus BX41, Tokyo, Japan). The lesions were graded according to severity by pathologists.

Compound: CCCCCCCCCCCCN=C(N)N.Cl [DGH, Dodecylguanidine hydrochloride]
- Lung: Cell infiltration, terminal bronchiole/alveolar duct, neutrophils/macrophages (female): 3(60.0)
- Lung: Intraluminal cell debris, terminal bronchiole/alveolar duct (female): 1(20.0)
- Lung: No specific lesion (female): 1(20.0)
- Nasal cavity Level 1: Acute inflammation with necrosis, focal (female): 1(20.0)
- Nasal cavity Level 1: Cell infiltration, lymphocytes, focal (female): 0(0.00)
- Nasal cavity Level 1: No specific lesion (female): 4(80.0)
- Nasal cavity Level 2: Acute inflammation with necrosis, focal (female): 0(0.00)
- Nasal cavity Level 2: Cell infiltration, lymphocytes, focal (female): 0(0.00)
- Nasal cavity Level 2: No specific lesion (female): 5(100)
- Nasal cavity Level 3: Cell infiltration, lymphocytes, focal (female): 1(20.0)
- Nasal cavity Level 3: No specific lesion (female): 4(80.0)
- Nasal cavity Level 4: Cell infiltration, lymphocytes, focal (female): 2(40.0)
- Nasal cavity Level 4: No specific lesion (female): 3(60.0)
- Lung: Cell infiltration, terminal bronchiole/alveolar duct, neutrophils/macrophages; Grade: minimal (female): 3
- Lung: Intraluminal cell debris, terminal bronchiole/alveolar duct; Grades: minimal (female): 1
- Nasal cavity Level 1: Acute inflammation with necrosis, focal; Grade: mild (female): 0
- Nasal cavity Level 1: Acute inflammation with necrosis, focal; Grade: minimal (female): 1
- Nasal cavity Level 1: Cell infiltration, lymphocytes, focal; Grade: minimal (female): 0
- Nasal cavity Level 2: Acute inflammation with necrosis, focal; Grade: mild (female): 0
- Nasal cavity Level 2: Acute inflammation with necrosis, focal; Grade: minimal (female): 0
- Nasal cavity Level 2: Cell infiltration, lymphocytes, focal; Grade: minimal (female): 0
- Nasal cavity Level 3: Cell infiltration, lymphocytes, focal; Grade: minimal (female): 1
- Nasal cavity Level 4: Cell infiltration, lymphocytes, focal; Grade: minimal (female): 2
- Lung: Cell infiltration, terminal bronchiole/alveolar duct, neutrophils/macrophages (male): 5(100)
- Lung: Intraluminal cell debris, terminal bronchiole/alveolar duct (male): 1(20.0)
- Lung: No specific lesion (male): 0(0.00)
- Nasal cavity Level 1: Acute inflammation with necrosis, focal (male): 1(20.0)
- Nasal cavity Level 1: Cell infiltration, lymphocytes, focal (male): 0(0.00)
- Nasal cavity Level 1: No specific lesion (male): 4(80.0)
- Nasal cavity Level 2: Acute inflammation with necrosis, focal (male): 1(20.0)
- Nasal cavity Level 2: Cell infiltration, lymphocytes, focal (male): 0(0.00)
- Nasal cavity Level 2: No specific lesion (male): 4(80.0)
- Nasal cavity Level 3: Cell infiltration, lymphocytes, focal (male): 2(40.0)
- Nasal cavity Level 3: No specific lesion (male): 3(60.0)
- Nasal cavity Level 4: Cell infiltration, lymphocytes, focal (male): 0(0.00)
- Nasal cavity Level 4: No specific lesion (male): 5(100)
- Lung: Cell infiltration, terminal bronchiole/alveolar duct, neutrophils/macrophages; Grade: minimal (male): 5
- Lung: Intraluminal cell debris, terminal bronchiole/alveolar duct; Grades: minimal (male): 1
- Nasal cavity Level 1: Acute inflammation with necrosis, focal; Grade: mild (male): 1
- Nasal cavity Level 1: Acute inflammation with necrosis, focal; Grade: minimal (male): 0
- Nasal cavity Level 1: Cell infiltration, lymphocytes, focal; Grade: minimal (male): 0
- Nasal cavity Level 2: Acute inflammation with necrosis, focal; Grade: mild (male): 1
- Nasal cavity Level 2: Acute inflammation with necrosis, focal; Grade: minimal (male): 0
- Nasal cavity Level 2: Cell infiltration, lymphocytes, focal; Grade: minimal (male): 0
- Nasal cavity Level 3: Cell infiltration, lymphocytes, focal; Grade: minimal (male): 2
- Nasal cavity Level 4: Cell infiltration, lymphocytes, focal; Grade: minimal (male): 0
